According to paper PMC2826162 (Expert opinion on drug metabolism & toxicology, 2010):
Where two headings read alike, the source gives them in different places.

Key:
C334ACYP101 [1] = molecular target: T1, C334ACYP101 (Pseudomonas putida, UniProt P00183, C335A); experiment: biochemical; assay type: binding
C334ACYP101 [2] = molecular target: T1, C334ACYP101; experiment: biochemical; assay type: binding; remark: listed apart in the source
CYP2C9 [3] = conditions: cited from earlier work
CYP3A4 = conditions: cited from earlier work
CYP2C9 [4] = conditions: cited from earlier work; remark: listed apart in the source
C334ACYP101 [5] = molecular target: T1, C334ACYP101; assay type: binding; conditions: for K4 apparent equilibrium constant: product (P) binding to ES; for K4 apparent equilibrium constant / K2 apparent equilibrium constant: pH 7.4, 24°C; for K2 apparent equilibrium constant: product binding to E; for K1K4: product of constants, ESP formed via ES
[6] = system: CYPC21 (steroid C-21 hydroxylase of bovine adrenocortical microsomes); conditions: low spin to five coordinated high spin; cited from earlier work
CYP73As = conditions: cinnamate hydroxylation; cited from earlier work
CYP2B4 [7] = molecular target: T2, CYP2B4 (Oryctolagus cuniculus, UniProt P00178); conditions: pH 7.4
T2 sequence (P00178 whole entry): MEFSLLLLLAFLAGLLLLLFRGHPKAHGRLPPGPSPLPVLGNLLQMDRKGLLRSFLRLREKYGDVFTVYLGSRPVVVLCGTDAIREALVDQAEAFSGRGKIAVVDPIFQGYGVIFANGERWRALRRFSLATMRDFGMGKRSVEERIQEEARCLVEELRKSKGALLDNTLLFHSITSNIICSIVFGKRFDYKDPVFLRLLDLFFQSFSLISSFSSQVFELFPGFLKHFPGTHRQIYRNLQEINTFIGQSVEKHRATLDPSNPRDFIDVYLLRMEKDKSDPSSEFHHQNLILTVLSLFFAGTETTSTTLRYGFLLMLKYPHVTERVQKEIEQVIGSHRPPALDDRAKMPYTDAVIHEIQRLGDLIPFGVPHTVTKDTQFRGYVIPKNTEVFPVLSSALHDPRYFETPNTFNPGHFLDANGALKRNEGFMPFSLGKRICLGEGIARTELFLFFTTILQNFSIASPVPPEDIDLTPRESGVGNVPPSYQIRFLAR

CYP2B4 [8] = molecular target: T2, CYP2B4; conditions: cited from earlier work
CYP2B4 [9] = conditions: cited from earlier work
CYP2B4 [10] = molecular target: T2, CYP2B4

T1 sequence (P00183 whole entry C335A): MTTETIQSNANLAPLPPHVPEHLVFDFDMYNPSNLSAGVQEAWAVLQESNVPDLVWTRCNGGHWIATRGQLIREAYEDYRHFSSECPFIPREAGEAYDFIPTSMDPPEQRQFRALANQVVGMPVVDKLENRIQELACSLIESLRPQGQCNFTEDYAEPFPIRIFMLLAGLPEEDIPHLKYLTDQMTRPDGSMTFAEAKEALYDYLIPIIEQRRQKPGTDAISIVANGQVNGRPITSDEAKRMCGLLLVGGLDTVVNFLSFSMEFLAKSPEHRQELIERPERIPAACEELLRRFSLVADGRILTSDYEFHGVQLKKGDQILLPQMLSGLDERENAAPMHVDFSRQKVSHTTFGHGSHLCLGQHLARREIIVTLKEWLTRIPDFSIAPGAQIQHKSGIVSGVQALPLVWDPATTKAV

CC12CCC(CC1=O)C2(C)C (stereo not drawn) [Cam, Camphor]
Kd (C334ACYP101 [1]): 4.8 ± 0.8 µM | Kd (C334ACYP101 [2]; KD^APP Kinetic): 6.2 ± 0.9 µM | Kd (C334ACYP101 [2]; KD^APP Transient): 5 ± 0.5 µM | peak to trough ratio of Type I difference spectrum (CYP101): ~0.87

CC(C(=O)O)c1ccc(-c2ccccc2)c(F)c1 (stereo not drawn) [Flurbiprofen, flurbiprofen]
Type I spectral change in the CYP2C9 (CYP2C9 [3]): elicits

O=C1C2CC3CC(C2)CC1C3 [2 Adone, 2-Adamantanone]
Kd (C334ACYP101 [1]): 2.9 ± 0.2 µM | Kd (C334ACYP101 [2]; KD^APP Transient, C334ACYP101, 10-13°C jump, 0.05 M K-PO4 buffer + 0.1 M KCl): 6 ± 2 µM

C[C@]12CC[C@H]3[C@@H](CCC4=CC(=O)CC[C@@]43C)[C@@H]1CC[C@@H]2O [testosterone]
effect on metabolism of midazolum by CYP3A4 (CYP3A4): inhibits

Nc1ccc(S(=O)(=O)c2ccc(NO)cc2)cc1 [N-hydroxydapsone]
effect on coupling efficiency of flurbiprofen hydroxylation (CYP2C9 [4]): enhanced | effect on flurbiprofen hydroxylation (CYP2C9 [4]): stimulating

O=c1cc(-c2ccccc2)oc2c1ccc1ccccc12 [α-NF, α-naphthoflavone]
effect on metabolism of aflatoxin B1 by CYP3A4 (CYP3A4): activates

CC1(C)[C@H]2CC(=O)[C@]1(C)C[C@H]2O [5exo OH Camphor, 5-exo-OH camphor]
K4 apparent equilibrium constant (C334ACYP101 [5]; OHcam 38 uM): .012 ± .001 µM⁻¹ | K2 apparent equilibrium constant (C334ACYP101 [5]; OHcam 38 uM): .039 ± .002 µM⁻¹ | K1K4 (C334ACYP101 [5]; OHcam 38 uM): .0080 | K4 apparent equilibrium constant (C334ACYP101 [5]; OHcam 66 uM): .0078 ± .0005 µM⁻¹ | K2 apparent equilibrium constant (C334ACYP101 [5]; OHcam 66 uM): .030 ± .004 µM⁻¹ | K1K4 (C334ACYP101 [5]; OHcam 66 uM): .0049 | K4 apparent equilibrium constant (C334ACYP101 [5]; OHcam 100 uM): .0063 ± .0004 µM⁻¹ | K2 apparent equilibrium constant (C334ACYP101 [5]; OHcam 100 uM): .034 ± .002 µM⁻¹ | K1K4 (C334ACYP101 [5]; OHcam 100 uM): .0043 | K4 apparent equilibrium constant (C334ACYP101 [5]; OHcam 133 uM): .0039 ± .0003 µM⁻¹ | K2 apparent equilibrium constant (C334ACYP101 [5]; OHcam 133 uM): .034 ± .002 µM⁻¹ | K1K4 (C334ACYP101 [5]; OHcam 133 uM): .0024

C[C@]12CCC(=O)C=C1CC[C@@H]1[C@@H]2CC[C@]2(C)C(=O)CC[C@@H]12 [androstenedione]
Type I spectral change [6]: elicited

Nc1ccc(S(=O)(=O)c2ccc(N)cc2)cc1 [dapsone]
Type I spectral change in the CYP2C9 (CYP2C9 [3]; static spectroscopy): does not elicit | effect on coupling efficiency of flurbiprofen hydroxylation (CYP2C9 [4]): enhanced | effect on flurbiprofen hydroxylation (CYP2C9 [4]): stimulating

COc1cc2c(c3oc(=O)c4c(c13)CCC4=O)[C@@H]1C=CO[C@@H]1O2 [aflatoxin B1]
effect on metabolism of α-NF by CYP3A4 (CYP3A4): has no effect

O=C(O)/C=C/c1ccc(O)cc1 [coumerate]
product inhibition of substrate hydroxylation (CYP73As): not observable

C[C@H](Cc1ccccc1)NCc1ccccc1 [DesBNZ, desmethylbenzphetamine]
Kd (CYP2B4 [7]): 701 ± 150 µM | time of Site II re-ligation to form the final Type II complex (slow phase) (CYP2B4 [8]): ≤ 20 milliseconds | strength of hetero atom binding to Site II (L6) (CYP2B4 [9]): as strongly as water | binding of product formed in situ (CYP2B4 [10]): remains bound
